Experimental data as given in the NIST ThermoML archive (doi:10.1016/j.tca.2013.12.016).

Test: mn = molality of the nth substance listed, in mol/kg
Details: 101 kPa, Liquid; for speed of sound: Linear variable-path acoustic interferometer; for mass density: Vibrating tube method

CCOC(C)=O [ethyl acetate] + CCO
Details	mass density, 298.15 K [kg/m3]	mass density, 303.15 K [kg/m3]	mass density, 308.15 K [kg/m3]	mass density, 313.15 K [kg/m3]	speed of sound, 298.15 K [m/s]	speed of sound, 303.15 K [m/s]	speed of sound, 308.15 K [m/s]	speed of sound, 313.15 K [m/s]
m2 = 0.0124	894.9	888.4	882.9	877.2	1152	1135	1116	1093
m2 = 0.0357	894.7	888.2	882.7	877	1151	1134	1115	1091
m2 = 0.0713	894.4	887.9	882.4	876.4	1150	1133	1114	1090
m2 = 0.1025	894.2	887.7	882.2	876.5	1149	1130	1110	1089
m2 = 0.2087	893.5	887	881.5	875.8	1147	1128	1098	1077
m2 = 0.3504	892.6	886.1	880.6	874.9	1143	1123	1092	1069
m2 = 0.5065	891.7	885.3	879.8	874	1140	1119	1091	1067
m2 = 0.6771	890.7	884.4	878.9	873.2	1139	1116	1086	1062
m2 = 0.9772	889.1	883	877.4	871.8	1136	1113	1083	1059
m2 = 1.701	885.5	879.4	874	868.3	1131	1110	1080	1056
m2 = 2.712	880.6	874.7	869.3	863.7	1128	1107	1074	1053
m2 = 3.001	879.4	873.5	868.1	862.5	1122	1101	1068	1044

CCOC(C)=O [ethyl acetate] + CO
Details	mass density, 298.15 K [kg/m3]	mass density, 303.15 K [kg/m3]	mass density, 308.15 K [kg/m3]	mass density, 313.15 K [kg/m3]	speed of sound, 298.15 K [m/s]	speed of sound, 303.15 K [m/s]	speed of sound, 308.15 K [m/s]	speed of sound, 313.15 K [m/s]
m2 = 0.0111	894.5	888.9	883	877.1	1110	1086	1059	1038
m2 = 0.0223	894.6	888.8	882.9	877	1113	1089	1062	1041
m2 = 0.0495	894.7	888.7	882.8	876.9	1116	1092	1065	1044
m2 = 0.1474	894.9	888.6	882.7	876.8	1119	1095	1068	1047
m2 = 0.2878	894.7	888.5	882.4	876.4	1122	1098	1071	1050
m2 = 0.3556	894.4	888.3	882.1	876.2	1125	1101	1074	1053
m2 = 0.4905	893.6	887.7	881.6	875.8	1128	1104	1077	1056
m2 = 0.7268	892.2	886.4	880.6	874.8	1131	1107	1080	1059
m2 = 0.974	890.5	884.9	879.1	873.8	1134	1110	1089	1062
m2 = 1.409	888.2	882.6	877	871.6	1137	1113	1092	1065
m2 = 2.445	886.1	879.8	873.8	868.4	1140	1116	1095	1068
m2 = 3.001	886	879.1	873.1	867.9	1143	1122	1098	1071

COC(C)=O [methyl ethanoate] + CCO
Details	mass density, 298.15 K [kg/m3]	mass density, 303.15 K [kg/m3]	mass density, 308.15 K [kg/m3]	mass density, 313.15 K [kg/m3]	speed of sound, 298.15 K [m/s]	speed of sound, 303.15 K [m/s]	speed of sound, 308.15 K [m/s]	speed of sound, 313.15 K [m/s]
m2 = 0.0152	927	920.5	914.2	908	1153	1134	1113	1089
m2 = 0.0357	926.8	920.3	914	907.8	1152	1131	1110	1086
m2 = 0.065	926.6	920.1	913.8	907.6	1150	1130	1108	1084
m2 = 0.102	926.3	919.8	913.5	907.3	1149	1128	1107	1083
m2 = 0.2098	925.5	919	912.7	906.5	1146	1125	1104	1080
m2 = 0.3417	924.5	918	911.7	905.5	1143	1122	1101	1077
m2 = 0.5068	923.1	916.7	910.4	904.1	1140	1119	1098	1074
m2 = 0.6769	921.8	915.4	909.1	902.8	1137	1116	1095	1071
m2 = 0.9775	919.5	913.1	906.9	900.6	1134	1113	1092	1068
m2 = 1.702	914.4	908	901.9	895.5	1131	1110	1089	1065
m2 = 2.712	907.8	901.5	895.4	889	1128	1107	1086	1062
m2 = 3	905.8	899.7	893.5	887.1	1122	1104	1080	1056
